US7429482B2, “Screening tools for discovery of novel anabolic agents” (United States of America as represented by the Department …, priority 2005, dated 2008)

Tests used:
MAFbx mRNA = MAFbx mRNA half-life after actinomycin in C2C12.AR cells; assay type: cell-based, mouse
Description: (A) Rats were administered test agents as indicated in the figure for 7-days, at which time animals were sacrificed and MAFbx expression was determined in gastrocnemius muscles by qPCR. Data are mean values±SEM for at least 8 animals. * p<0.05 vs vehicle, t-test. (B) AR6 cells were seeded into 6-well plates and incubated overnight in growth medium. Medium was replaced with DMEM containing 2% horse serum followed by incubation for an additional 48 hours. Hormones or vehicle (EtOH) were added to the medium and cells were incubated overnight, at which time MAFbx mRNA levels were determined by qPCR and expressed as fold-induction versus levels in cells incubated with EtOH. Data are mean values±SEM for three determinations each performed in triplicate. * p<0.05 vs. EtOH (ANOVA). (C) Effect of testosterone on MAFbx mRNA half-life. C2C12.AR cells were incubated overnight in growth medium supplemented with testosterone or vehicle (EtOH). […] Levels of MAFbx mRNA are expressed as a percentage of those at time zero. […]
RNA was quantified by absorbance at 260 nm. […] Relative changes in expression were determined using the 2^−ΔΔCt method. Taqman Assay on Demand probes (Applied Biosystems) were used for all assays except rat 18S RNA, which was quantified using the following Assay on Demand Probes: Forward: […] […]

IGF-1 receptor = assay: Chronic denervation: IGF receptor mRNA in gastrocnemius (qPCR); assay type: in vivo, rat; conditions: for IGF-receptor expression: denervated muscle
Description: (§1) Male Wistar rats weighing 200-250 gm (Taconic Farms, Germantown, N.Y.) were provided food and water ad libitum and were housed in a temperature and humidity controlled environment providing a 12:12 hour day-night cycle. For surgical procedures, animals were anesthetized with ketamine/xylazine. The left sciatic nerve was exposed by blunt dissection, and a 1 to 2 mm piece of this nerve was excised just below the level of the femoral head. A sham surgery was performed on the right hind limb in which the sciatic nerve was exposed but was not transected. Twenty eight days later, animals were anesthetized, and Alzet pumps were implanted subcutaneously on the back. […] Testosterone levels after replacement were approximately 15 nM, a high-normal range for rats of this age. Animals were sacrificed 3, 7 or 28 days after implantation of the miniosmotic pumps by inhalation of carbon dioxide. Gastrocnemius muscles were excised and weighed, then flash frozen on dry ice and stored at −80° C.
Total RNA was extracted from skeletal muscle (20 mg) by homogenization in guanidine thiocyanate using a Polytron followed by extraction of total RNA with phenol-chloroform as described by (Chomczynski and Sacchi, Anal Biochem 162: 156-159, 1987). Total RNA was further enriched using RNAeasy minicolumns (Qiagen, Valencia, Calif.). This procedure included digestion of contaminating DNA on the column with RNAse-free DNAse (Qiagen). Total RNA was eluted and quantified by absorbance at 260 nm. One μg of total RNA was used to prepare a cDNA library by reverse transcription (High Capacity cDNA Archive Kit, Applied Biosystems). Libraries were diluted 25-fold with water. Real time PCR was performed Taqman 2×PCR buffer (Applied Biosystems) using an Applied Biosystems 7500 thermocycler. Levels of gene expression in the denervated muscle were expressed as fold induction relative to muscle from the sham-denervated leg of animals administered vehicle. […] Fold-induction was determined using the 2^−ΔΔCt method, using expression of 18S RNA as the normalization control. […]

IGFBP-2 = assay: Chronic denervation: IGFBP-2 mRNA in gastrocnemius (qPCR); assay type: in vivo, rat
Description: as §1, with “Animals were sacrificed 3, 7 or 28 days after implantation of the miniosmotic pumps by inhalation of carbon dioxide. Gastrocnemius muscles were excised and weighed, then flash frozen on dry ice and stored at −80° C.” left out
(§2) Total RNA was extracted from skeletal muscle (20 mg) by homogenization in guanidine thiocyanate using a Polytron followed by extraction of total RNA with phenol-chloroform as described by (Chomczynski and Sacchi, Anal Biochem 162: 156-159, 1987). […] Total RNA was eluted and quantified by absorbance at 260 nm. […] Levels of gene expression in the denervated muscle were expressed as fold induction relative to muscle from the sham-denervated leg of animals administered vehicle. […] Fold-induction was determined using the 2^−ΔΔCt method, using expression of 18S RNA as the normalization control. […]

IGF-1 = assay: Chronic denervation: IGF-1 mRNA in gastrocnemius (qPCR); assay type: in vivo, rat
Description: as §1, with “Animals were sacrificed 3, 7 or 28 days after implantation of the miniosmotic pumps by inhalation of carbon dioxide. Gastrocnemius muscles were excised and weighed, then flash frozen on dry ice and stored at −80° C.” left out
as §2

junB = assay: Acute denervation: junB mRNA in EDL and soleus (qPCR); assay type: in vivo, rat
myogenin = assay: Chronic denervation: myogenin mRNA in gastrocnemius (qPCR); assay type: in vivo, rat
Description: as §1
Total RNA was extracted from skeletal muscle (20 mg) by homogenization in guanidine thiocyanate using a Polytron followed by extraction of total RNA with phenol-chloroform as described by (Chomczynski and Sacchi, Anal Biochem 162: 156-159, 1987). Total RNA was further enriched using RNAeasy minicolumns (Qiagen, Valencia, Calif.). This procedure included digestion of contaminating DNA on the column with RNAse-free DNAse (Qiagen). Total RNA was eluted and quantified by absorbance at 260 nm. One μg of total RNA was used to prepare a cDNA library by reverse transcription (High Capacity cDNA Archive Kit, Applied Biosystems). Libraries were diluted 25-fold with water. Real time PCR was performed Taqman 2×PCR buffer (Applied Biosystems) using an Applied Biosystems 7500 thermocycler. Levels of gene expression in the denervated muscle were expressed as fold induction relative to muscle from the sham-denervated leg of animals administered vehicle. […] Fold-induction was determined using the 2^−ΔΔCt method, using expression of 18S RNA as the normalization control. Primers and probes used for 18S RNA, MuRF1 and myostatin were obtained through the assays by Design service of Applied Biosystems and had the sequences are shown in Table 3; probes were 5′ labeled with FAM and 3′ modified with a non-fluorescent quencher. All other primer-probe combinations used were those contained in ABI Assay on Demand kits.

IGFBP-3 = assay: Chronic denervation: IGFBP-3 mRNA in gastrocnemius (qPCR); assay type: in vivo, rat
Description: as §1, with “Animals were sacrificed 3, 7 or 28 days after implantation of the miniosmotic pumps by inhalation of carbon dioxide. Gastrocnemius muscles were excised and weighed, then flash frozen on dry ice and stored at −80° C.” left out
as §2

With C[C@]12CC[C@H]3[C@@H](CCC4=CC(=O)CC[C@@]43C)[C@@H]1CC[C@@H]2O [testosterone] the “half-life of MAFbx mRNA versus absence of testosterone” value (MAFbx mRNA) was “not significantly different”.
With C[C@]12CC[C@H]3[C@@H](CCC4=CC(=O)CC[C@@H]43)[C@@H]1CC[C@@H]2O [nandrolone] the IGF-receptor expression (IGF-1 receptor; after 28 days (p<0.10)) was “trend toward increased expression”, the IGF-receptor expression (IGF-1 receptor; early time points) was “did not alter” and the IGF-1 receptor expression (IGF-1 receptor; sham-denervated muscle) was “not altered”. The IGFBP-2 expression (IGFBP-2; denervated muscle, any time tested) was “did not significantly alter”, the IGFBP-2 expression (IGFBP-2; sham-denervated muscle) was “did not appreciably alter” and the IGF-1 expression (IGF-1; denervated muscle) was “did not alter”. For the same compound, the IGF-1 expression (IGF-1; sham-denervated muscle) was “did not alter”, the junB expression (junB; denervated EDL) was “significantly reduced” and the junB expression (junB; denervated soleus) was “tended to reduce”. For the same compound, the “increase in junB expression” value (junB; soleus and EDL from sham-denervated limbs, tendency) was “approximately 2 fold”, the myogenin expression (myogenin; denervated muscle, 3 or 7-days administration) was “No effects” and the “fall in myogenin expression” value (myogenin; denervated muscle, 28-days infusion) was 32%. For the same compound, the “elevation of myogenin expression” value (myogenin; muscle not stated (contrasted with denervated muscle), day 28 of the infusion) was “approximately 2 fold”, the myogenin expression (myogenin; muscle not stated, first 7-days after starting administration) was “did not alter” and the IGF-BP-3 expression (IGFBP-3; denervated muscle, 56-days) was “significantly reduced”. The IGFBP-3 expression (IGFBP-3; sham-denervated muscle) was “did not appreciably alter”.
